In patent publication US10028966B2 (Avalyn Pharma Inc., priority 2014, dated 2018):
Converted amounts (≈) assume the structure as drawn. Where two headings read alike, the source gives them in different places.

How the values were obtained:
[1] = system: inflammasome activation in 264.7 macrophages; assay: Inflammasome first signal activation (LPS, secreted IL-1β); format: cell-based; conditions: Macrophage; read-out: fifty-percent inhibitory concentration (IC50), first-signal inflammasome activation
[2] = Modeled human inhaled aerosol pirfenidone pharmacokinetics (FIG. 2, FIG. 5, Table 28)
Description: More specifically, the oral route requires a large oral dose to achieve a relatively small lung tissue Cmax. Delivering a similar Cmax without the large systemic dose provides increased efficacy. However, further escalating this direct lung dose, which results in increased systemic exposure, reduces this effect. […] Specifically, a high lung tissue Cmax is important for lung tissue anti-fibrotic efficacy. However, this positive effect appears dependent upon an associated small plasma AUC; the larger the plasma AUC, the lower the efficacy. […] In practice, the oral route of administration is not capable of meeting this U-shaped-restricted dose response. Safety and tolerability prevent further dose escalation of the 801 mg/dose oral medicine (Esbriet®). […] To illustrate these findings, possible human lung tissue and plasma pharmacokinetics following tidal-breath-inhaled aerosol administration were again modeled (FIG. 5). […] These safety and/or tolerability restrictions may be associated with plasma AUC, plasma Cmax, gastrointestinal exposure or a combination of these events. […] However, this limitation could also be set as the plasma Cmax or a combination of these pharmacokinetic parameters.
Aerosol deliver parameters for the FIGS. 2 and 5 models were based on high-efficiency, mesh-based nebulizer characterization (Table 12). […] Respirable delivered dose (RDD) calculated by the product of fine particle fraction (FPF, %<5 microns) and inhaled mass. […] For this non-limiting example, a FPF of 78% and inhaled mass of 67% was used. Using these numbers, a 90 mg device-loaded dose may produce an RDD of about 47 mg (Table 26 and FIG. 2). […] For this non-limiting example, a FPF of 78% and inhaled mass of 67% was used. Using these numbers, a 230 mg device-loaded dose may produce an RDD of about 120 mg. […] This later dose was modeled to be delivered in 1 minute.
An additional clinical consideration is the rat plasma AUC showing non-efficacy in the bleomycin model. […] Only lower delivered doses show anti-fibrotic effect. Plasma AUCs obtained from higher intratracheal or oral doses appears to have similar non-efficacy or enhanced disease.

[3] = Buffer and pH effects study: pirfenidone saturation solubility; format: physicochemical; conditions: thermodynamic from solid
Method: The sample was agitated at ambient temperature overnight. The sample was visually inspected, appearance recorded, centrifuged to sediment any un-dissolved material, and the supernatant withdrawn via syringe through a 0.22 μm PVDF filter. […] The remaining filtered sample was split into three equal volumes in glass vials and placed at 25° C./60 RH, 40° C./75 RH and refrigeration. Samples were wrapped in aluminum foil to reduce light exposure. After the first night of incubation, samples were briefly visually inspected for any signs of discoloration or precipitate formation.

[4] = system: normal human pulmonary fibroblasts; assay: TGFβ1-induced fibroblast differentiation; format: cell-based; conditions: for IC50: Homo sapiens, Pulmonary fibroblast, read-out: IC50, TGFβ-induced fibroblast differentiation; for αSMA (Fluorescence): TGFβ +
Method: Briefly, 20 000 cells per well were seeded in black 96 well collagen coated plates and incubate overnight (approximately 24 hours) to allow adherence. […] Cultures were then incubated for 48 hours. […] Separate controls were included for diluted cultures containing TGFβ1 or media alone. At the end of incubation, cells were fixed and stained for imaging and fluorescence plate reader quantitation. Parallel cultures were assessed for cytotoxicity using the MTS dye assay.

CYP2C9 = molecular target: T1, CYP2C9 (Homo sapiens, UniProt P11712); conditions: hepatic microsomes; cited from earlier work
T1 construct: In vitro metabolism studies with hepatic microsomes; from tissue; host or cells: hepatic microsomes

[5] = Aqueous solubility, tonicity salt, dissolution and taste observations on pirfenidone formulations; format: physicochemical
Method: However, at this (and lower) concentration it was determined that salt addition was required to improve acute tolerability upon inhalation of a nebulized solution (otherwise a hypotonic solution). To address tonicity, NaCl or MgCl2 were added. […] This effect was not observed at ˜pH 8.

T1 sequence (P11712 whole entry): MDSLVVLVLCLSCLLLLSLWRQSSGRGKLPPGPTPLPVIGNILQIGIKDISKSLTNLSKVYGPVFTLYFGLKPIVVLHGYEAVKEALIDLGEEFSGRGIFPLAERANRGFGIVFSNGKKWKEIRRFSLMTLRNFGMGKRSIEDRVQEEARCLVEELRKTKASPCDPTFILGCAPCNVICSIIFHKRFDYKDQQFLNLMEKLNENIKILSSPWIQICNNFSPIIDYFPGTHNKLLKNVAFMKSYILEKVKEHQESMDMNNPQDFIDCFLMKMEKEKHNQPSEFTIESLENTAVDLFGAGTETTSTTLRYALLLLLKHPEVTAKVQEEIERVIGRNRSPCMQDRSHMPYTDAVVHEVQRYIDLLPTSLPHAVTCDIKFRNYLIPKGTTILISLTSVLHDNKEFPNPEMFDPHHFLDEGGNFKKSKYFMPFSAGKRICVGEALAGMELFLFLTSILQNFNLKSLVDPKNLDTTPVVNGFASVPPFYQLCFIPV

Cc1ccc(=O)n(-c2ccccc2)c1 [pirfenidone, 5-methyl-1-phenyl-2-(1H)-pyridone]
IC50 [1]: ~25 µg/mL (≈ 0.135 mM)
lung tissue Cmax compared to 801 mg oral dose ([2]; modeled human, 2.5 mg RDD inhaled over 1 minute): equivalent
plasma AUC0-18hrs ([2]; modeled human, 29 mg RDD, 3 minute tidal-inhaled nebulized dose): 13400 ng·h/mL
plasma AUC compared to 801 mg oral pirfenidone dose (with food) ([2]; modeled human, 120 mg RDD inhaled over 5 minutes): equivalent
human lung tissue Cmax ([2]; modeled, 29 mg RDD, 3 minute tidal-inhaled nebulized dose): 43.2 mcg/gram lung tissue
solubility ([3]; citrate buffer, pH 4, aqueous buffer, Citrate buffer 5 mM, pH 4, ambient temperature overnight): 18.4 mg/mL (≈ 99.3 mM)
solubility ([3]; citrate buffer, pH 4, aqueous buffer, Citrate buffer 50 mM, pH 4, ambient temperature overnight): 18.1 mg/mL (≈ 97.7 mM)
solubility ([3]; citrate buffer, pH 6, aqueous buffer, Citrate buffer 5 mM, pH 6, ambient temperature overnight): 18.4 mg/mL (≈ 99.3 mM)
solubility ([3]; citrate buffer, pH 6, aqueous buffer, Citrate buffer 50 mM, pH 6, ambient temperature overnight): 16.4 mg/mL (≈ 88.5 mM)
solubility ([3]; phosphate buffer, pH 6, aqueous buffer, Phosphate buffer 5 mM, pH 6, ambient temperature overnight): 18.3 mg/mL (≈ 98.8 mM)
solubility ([3]; phosphate buffer, pH 6, aqueous buffer, Phosphate buffer 50 mM, pH 6, ambient temperature overnight): 17.2 mg/mL (≈ 92.9 mM)
solubility ([3]; phosphate buffer, pH 7.5, aqueous buffer, Phosphate buffer 5 mM, pH 7.5, ambient temperature overnight): 19 mg/mL (≈ 103 mM)
solubility ([3]; phosphate buffer, pH 7.5, aqueous buffer, Phosphate buffer 50 mM, pH 7.5, ambient temperature overnight): 16.3 mg/mL (≈ 88 mM)
solubility ([3]; water, pH 7.9, water, buffer 0 mM, pH 7.9, ambient temperature overnight): 18.4 mg/mL (≈ 99.3 mM)
IC50 ([4]; 48 h): ~25 µg/mL (≈ 0.135 mM)
IC50 [4]: ~125 µg/mL (≈ 0.675 mM)
αSMA (Fluorescence) ([4]; Table 36, Long-term exposure (48 hours), pirfenidone 5 mcg/mL): 4.72
αSMA (Fluorescence) ([4]; Table 36, Long-term exposure (48 hours), pirfenidone 25 mcg/mL): 4.04
αSMA (Fluorescence) ([4]; Table 36, Long-term exposure (48 hours), pirfenidone 125 mcg/mL): 3.15
αSMA (Fluorescence) ([4]; Table 36, Long-term exposure (48 hours), pirfenidone 625 mcg/mL): 2.47
αSMA (Fluorescence) ([4]; Table 36, Short-term exposure, pirfenidone 5 mcg/mL): 6.76
αSMA (Fluorescence) ([4]; Table 36, Short-term exposure, pirfenidone 25 mcg/mL): 5.34
αSMA (Fluorescence) ([4]; Table 36, Short-term exposure, pirfenidone 625 mcg/mL): 3.57
αSMA (Fluorescence) ([4]; Table 37 (broader dose-response), Short-term exposure, pirfenidone 1 mcg/mL): 7.65
αSMA (Fluorescence) ([4]; Table 37 (broader dose-response), Short-term exposure, pirfenidone 10 mcg/mL): 7.75
αSMA (Fluorescence) ([4]; Table 37 (broader dose-response), Short-term exposure, pirfenidone 100 mcg/mL): 5.61
αSMA (Fluorescence) ([4]; Table 37 (broader dose-response), Short-term exposure, pirfenidone 1000 mcg/mL): 2.27
contribution to pirfenidone metabolism (CYP2C9): less than 13%
formulation stability on storage ([5]; MgCl2 added, 1:1 and 1:2 mole ratios of magnesium to pirfenidone): maintained a stable, soluble solution
solubility ([5]; aqueous solution, aqueous buffer, across a pH range of about 4.0 to about 8.0): ~17 mg/mL
formulation stability on storage ([5]; ~17 mg/mL pirfenidone, NaCl added for tonicity, ambient storage): precipitation upon ambient storage
